Experimental data taken from patent publication US7972815B2, “Method of producing sugar chain using human G4 polypeptide” (Kyowa Hakko Kirin Co., Ltd., priority 1999, dated 2011).

Columns and labels:
Type in all cases: biochemical
secreted G7 = molecular target: T1, secreted G7 (Homo sapiens, UniProt Q9C0J1); test: β1,3-galactosyltransferase activity of the secreted G7; conditions: acceptor substrate, method of Example 11(2)
T1 construct: made in house; host or cells: Sf21 insect cells infected with recombinant baculovirus from pVL1393-F2G7
Procedure: (§1) The glycosyltransferase reaction was carried out as follows. The reaction was carried out at 37° C. for 16 hours in 40 μl of an assay solution [50 mmol/l MOPS (pH 7.5), 5 mmol/l UDP-GlcNAc (SIGMA), 5 mmol/l MnCl2, 10 mmol/l of a sugar chain substrate and 10 μl of the above eluate]. Next, the reaction solution was treated at 100° C. for 5 minutes and then centrifuged at 10,000×g for 20 minutes to obtain the supernatant, and a portion thereof was analyzed by using HPAE/PAD (High Performance Anion Pulsed Amperometoric Detection; manufactured by DIONEX). The specific method was carried out in the usual way [Anal. Biochem., 189, 151 (1990), J. Biol. Chem., 273, 433 (1998)].
On the other hand, when β1,3-galactosyltransferase activity of the secreted G7 was measured by using GlcNAc and GlcNAcβ1-3Galβ1-4Glc as acceptor substrates, the activity was not detected. […] The method described in Example 11(2) was used.

secreted G3 = molecular target: T2, secreted G3 (Homo sapiens, UniProt Q9NY97); test: β1,3-galactosyltransferase activity of the secreted G3; conditions: acceptor substrate, method of Example 11(2)
T2 construct: made in house; host or cells: Sf21 insect cells infected with recombinant baculovirus from pVL1393-F2G3
T2 sequence (Q9NY97 31-397): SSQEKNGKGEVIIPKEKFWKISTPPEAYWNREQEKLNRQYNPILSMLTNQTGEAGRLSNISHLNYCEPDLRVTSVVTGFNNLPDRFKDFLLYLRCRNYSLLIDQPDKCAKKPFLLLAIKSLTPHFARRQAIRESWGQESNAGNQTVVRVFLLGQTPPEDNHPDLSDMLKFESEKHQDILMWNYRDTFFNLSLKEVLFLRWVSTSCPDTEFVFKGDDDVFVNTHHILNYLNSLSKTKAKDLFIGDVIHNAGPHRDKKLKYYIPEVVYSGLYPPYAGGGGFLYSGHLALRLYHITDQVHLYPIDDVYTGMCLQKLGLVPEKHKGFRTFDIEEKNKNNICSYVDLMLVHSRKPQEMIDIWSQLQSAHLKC
Procedure: as §1
On the other hand, when β1,3-galactosyltransferase activity of the secreted G3 was measured by using GlcNAc and GlcNAcβ1-3Galβ1-4Glc as acceptor substrates, the activity was not detected. […] The method described in Example 11(2) was used.

secretory G4 = molecular target: T3, secretory G4 (Homo sapiens, UniProt Q9Y2A9, R328H); test: β1,3-galactosyltransferase activity of the secretory G4; conditions: receptor substrate 10 mmol/l, 37° C., 16 hours
T3 construct: made in house; host or cells: Sf21 insect cells infected with recombinant baculovirus from pVL1393-F2G4
T3 sequence (Q9Y2A9 38-372 R328H): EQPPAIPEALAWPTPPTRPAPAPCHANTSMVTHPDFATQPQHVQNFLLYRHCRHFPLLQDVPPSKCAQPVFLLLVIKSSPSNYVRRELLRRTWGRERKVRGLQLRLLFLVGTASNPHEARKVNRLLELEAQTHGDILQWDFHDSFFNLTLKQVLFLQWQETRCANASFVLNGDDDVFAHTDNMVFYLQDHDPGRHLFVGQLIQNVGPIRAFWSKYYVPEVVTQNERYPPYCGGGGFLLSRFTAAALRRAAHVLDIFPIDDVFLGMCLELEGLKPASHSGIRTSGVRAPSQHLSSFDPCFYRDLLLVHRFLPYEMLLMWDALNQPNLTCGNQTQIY
Procedure: On the other hand, when β1,3-galactosyltransferase activity of the secretory G4 was measured by using GlcNAc and GlcNAcβ1-3Galβ1-4Glc as receptor substrates, the activity was not detected.
as §1

T1 sequence (Q9C0J1 56-378): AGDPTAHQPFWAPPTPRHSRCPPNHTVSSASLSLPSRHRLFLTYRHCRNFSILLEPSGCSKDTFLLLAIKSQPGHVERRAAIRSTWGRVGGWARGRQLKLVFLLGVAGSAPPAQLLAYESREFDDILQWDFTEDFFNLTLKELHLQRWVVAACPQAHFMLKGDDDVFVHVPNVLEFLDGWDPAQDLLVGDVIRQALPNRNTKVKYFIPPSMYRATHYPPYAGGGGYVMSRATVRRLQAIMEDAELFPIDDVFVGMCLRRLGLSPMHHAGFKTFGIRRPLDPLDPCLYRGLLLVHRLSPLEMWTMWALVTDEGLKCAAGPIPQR

β1,3-galactosyltransferase activity (secreted G7) | β1,3-galactosyltransferase activity (secreted G3) | β1,3-galactosyltransferase activity (secretory G4) | Compound
not detected | not detected | not detected | CC(=O)N[C@H]1C(O)O[C@H](CO)[C@@H](O)[C@@H]1O (stereo partly drawn) [GlcNAc, N-acetylglucosamine]
not detected | not detected | not detected | CC(=O)N[C@H]1[C@H](O[C@H]2[C@@H](O)[C@@H](CO)O[C@@H](O[C@H]3[C@H](O)[C@@H](O)C(O)O[C@@H]3CO)[C@@H]2O)O[C@H](CO)[C@@H](O)[C@@H]1O (stereo partly drawn) [GlcNAcβ1-3Galβ1-4Glc]
